A value given as a limit tells only on which side of the number the result lay.

The IC50 is the midpoint of a concentration-inhibition curve. A lower IC50 goes with inhibition by little substance.

The target of experiment [1] is GroEL/GroES. Also noted: species or system Escherichia coli.
Description: (§1) Inhibition of Escherichia coli GroEL expressed in Escherichia coliDH5alpha/Escherichia coli GroES expressed in Escherichia coli BL21 (DE3) assessed as reduction in GroEL/GroES-mediated denatured soluble pig heart MDH refolding by measuring MDH enzyme activity using sodium mesoxalate as substrate after 20 to 40 mins by malachite green dye based spectrometric analysis
Experiment [2] deals with GroEL/GroES. Details: species or system Escherichia coli. The source holds these as a separate data set.
Description: (§2) Inhibition of Escherichia coli GroEL expressed in Escherichia coli DH5alpha/Escherichia coli GroES expressed in Escherichia coli BL21 (DE3) assessed as reduction in GroEL/GroES-mediated denatured rhodanese refolding by measuring rhodanese enzyme activity after 45 mins by Fe(SCN)3 dye based spectrometric analysis
For the next experiment, the target named is Chaperonin GroEL (Escherichia coli (strain K12), UniProt P0A6F5).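 Also: inhibition of GroEL ATPase activity with ATP as substrate, 60 min incubation, spectrometric read-out, recombinant enzyme produced in Escherichia coli DH5alpha.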
Experiment [3] addresses HSP60/HSP10 (Homo sapiens, UniProt P10809+P61604).
Description: (§3) Inhibition of human N-terminal octa-His-tagged HSP60 expressed in Escherichia coli Rosetta(DE3) pLysS/human HSP10 expressed in Escherichia coli Rosetta(DE3) assessed as reduction in HSP60/HSP10-mediated denatured MDH refolding by measuring MDH enzyme activity using sodium mesoxalate as substrate after 40 to 60 mins by malachite green dye based spectrometric analysis
For experiment [4], the target named is T1, E. coli GroEL/ES (Escherichia coli, UniProt P0A6F5).
Description: as §1
For experiment [5], the target named is T1, E. coli GroEL/ES. This is another data set of the same source.
Description: as §2
Experiment [6] has as its target T2, Thiosulfate sulfurtransferase (Homo sapiens, UniProt Q16762).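 Also: native rhodanese of unspecified species, enzyme activity read after 45 min by spectrophotometric detection of Fe(SCN)3 colour, IC50 reflects activity reduction.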
T2 sequence (Q16762 whole entry): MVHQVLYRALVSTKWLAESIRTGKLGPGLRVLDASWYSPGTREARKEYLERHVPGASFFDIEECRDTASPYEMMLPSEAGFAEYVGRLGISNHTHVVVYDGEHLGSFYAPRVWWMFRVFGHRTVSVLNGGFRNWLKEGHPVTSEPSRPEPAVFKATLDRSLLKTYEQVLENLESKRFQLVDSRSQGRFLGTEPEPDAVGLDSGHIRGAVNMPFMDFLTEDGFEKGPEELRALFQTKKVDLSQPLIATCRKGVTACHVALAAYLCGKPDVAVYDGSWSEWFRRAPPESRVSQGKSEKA
The experiment is classed as ADME.
Description: Inhibition of native rhodanese (unknown origin) assessed as reduction in rhodanese enzyme activity after 45 mins by Fe(SCN)3 dye based spectrometric analysis

Experiment [7] addresses HSP60/HSP10 (Homo sapiens, UniProt P10809).
Description: as §3

Chain of HSP60/HSP10 (Homo sapiens, UniProt P10809) (P10809 whole entry): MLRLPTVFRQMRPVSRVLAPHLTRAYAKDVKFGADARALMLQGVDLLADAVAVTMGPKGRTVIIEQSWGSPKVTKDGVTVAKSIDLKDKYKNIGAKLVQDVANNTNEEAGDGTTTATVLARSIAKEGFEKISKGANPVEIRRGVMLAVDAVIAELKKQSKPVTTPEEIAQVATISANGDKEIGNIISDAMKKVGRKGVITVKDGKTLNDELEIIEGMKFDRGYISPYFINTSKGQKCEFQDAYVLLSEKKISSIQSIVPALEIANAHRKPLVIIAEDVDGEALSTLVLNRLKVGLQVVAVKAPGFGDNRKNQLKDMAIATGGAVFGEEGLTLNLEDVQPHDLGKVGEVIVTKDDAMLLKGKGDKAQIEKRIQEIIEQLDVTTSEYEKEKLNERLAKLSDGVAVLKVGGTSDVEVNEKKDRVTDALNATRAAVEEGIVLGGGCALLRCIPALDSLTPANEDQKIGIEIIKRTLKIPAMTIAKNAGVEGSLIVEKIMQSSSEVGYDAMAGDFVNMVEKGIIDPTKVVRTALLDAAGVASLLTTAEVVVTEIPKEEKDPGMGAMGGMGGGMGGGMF
Chain of HSP60/HSP10 (Homo sapiens, UniProt P10809) (P61604 whole entry, further chain): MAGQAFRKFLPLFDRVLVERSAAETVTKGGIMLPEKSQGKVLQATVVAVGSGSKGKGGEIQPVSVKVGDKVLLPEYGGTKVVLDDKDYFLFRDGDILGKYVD
T1 sequence (P0A6F5 whole entry, looked up): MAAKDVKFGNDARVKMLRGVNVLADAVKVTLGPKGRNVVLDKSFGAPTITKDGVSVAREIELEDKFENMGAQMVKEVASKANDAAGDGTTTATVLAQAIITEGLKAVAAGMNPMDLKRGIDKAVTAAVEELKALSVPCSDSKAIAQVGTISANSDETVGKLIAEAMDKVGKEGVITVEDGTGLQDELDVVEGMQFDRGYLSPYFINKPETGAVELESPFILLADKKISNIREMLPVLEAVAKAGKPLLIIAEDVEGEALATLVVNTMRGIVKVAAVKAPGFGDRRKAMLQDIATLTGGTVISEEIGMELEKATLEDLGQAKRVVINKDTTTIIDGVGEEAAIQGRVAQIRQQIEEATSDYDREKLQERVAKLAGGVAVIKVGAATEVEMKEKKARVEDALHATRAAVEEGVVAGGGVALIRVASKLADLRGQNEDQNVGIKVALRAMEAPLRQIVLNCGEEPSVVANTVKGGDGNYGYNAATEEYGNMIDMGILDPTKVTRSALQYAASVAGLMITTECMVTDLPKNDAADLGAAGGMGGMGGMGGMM
Chain of Chaperonin GroEL (P0A6F5 whole entry): as the sequence (P0A6F5 whole entry, looked up) above
Chain of HSP60/HSP10 (Homo sapiens, UniProt P10809+P61604) (P10809 whole entry): as the sequence (P10809 whole entry) above
Chain of HSP60/HSP10 (Homo sapiens, UniProt P10809+P61604) (P61604 whole entry): as the sequence (P61604 whole entry, further chain) above
Description for Chaperonin GroEL: Inhibition of ATPase activity of Escherichia coli GroEL expressed in Escherichia coliDH5alpha incubated for 60 mins using ATP by spectrometric analysis

Regarding `C=CC1=C(C)c2cc3[nH]c(cc4nc(cc5[nH]c(cc1n2)c(C)c5CCC(=O)O)C(CCC(=O)O)=C4C)c(C)c3C=C` [PROTOPORPHYRIN], the IC50 against GroEL/GroES [1] was 4.4 µM; against GroEL/GroES [2], 3 µM; against Chaperonin GroEL, greater than 250 µM; against HSP60/HSP10 [3] it was 4.9 µM.

With `O=C1c2ccccc2C(=O)c2c(O)c(O)cc(O)c21` [PURPURIN], the IC50 was 15 µM at E. coli GroEL/ES [4]; 4 µM against E. coli GroEL/ES [5]; greater than 250 µM against Chaperonin GroEL; 2.3 µM in experiment [6]; 23 µM against HSP60/HSP10 [7].

As for `C=C1CC[C@H](O)C/C1=C/C=C1\CCC[C@]2(C)[C@@H]([C@H](C)CCCC(C)C)CC[C@@H]12` [CHOLECALCIFEROL], the IC50 at E. coli GroEL/ES [4] was 22 µM; on E. coli GroEL/ES [5], 31 µM; on Chaperonin GroEL, greater than 250 µM; in experiment [6], greater than 100 µM; on HSP60/HSP10 [7], 11 µM.

In the case of `C=C(CC)C(=O)c1ccc(OCC(=O)O)c(Cl)c1Cl` [ETHACRYNIC ACID], the IC50 was 5.2 µM at E. coli GroEL/ES [4]; 4.7 µM against E. coli GroEL/ES [5]; greater than 250 µM on Chaperonin GroEL; greater than 100 µM in experiment [6]; 8.5 µM against HSP60/HSP10 [7].

For the molecule `Oc1c(Cl)cc(Cl)cc1Sc1cc(Cl)cc(Cl)c1O` [BITHIONOL], the IC50 was 4.3 µM on E. coli GroEL/ES [4]; 13 µM at E. coli GroEL/ES [5]; greater than 250 µM against Chaperonin GroEL; greater than 100 µM in experiment [6]; 2.8 µM against HSP60/HSP10 [7].

For `COc1ccc(-c2ccc3cc(C(=O)O)ccc3c2)cc1C12CC3CC(CC(C3)C1)C2`, the IC50 on E. coli GroEL/ES [4] is 2.1 µM; on E. coli GroEL/ES [5], 5.1 µM; against Chaperonin GroEL, greater than 250 µM; in experiment [6] it was greater than 100 µM; at HSP60/HSP10 [7], 2.3 µM.

Consider `CCCCCCCCCCCCCCCC(=O)OC[C@H](O)[C@H]1OC(=O)C(O)=C1O` [ASCORBYL PALMITATE], for which the IC50 against E. coli GroEL/ES [4] came out at 3.5 µM; against E. coli GroEL/ES [5] it was 8.5 µM; on Chaperonin GroEL, 177 µM; in experiment [6], 53 µM; at HSP60/HSP10 [7], 3.1 µM.

For `O=C(/C=C/c1ccc(O)cc1)c1ccccc1` [4-HYDROXYCHALCONE], the IC50 on E. coli GroEL/ES [4] was 21 µM; at E. coli GroEL/ES [5], 40 µM; on Chaperonin GroEL, greater than 250 µM; in experiment [6], greater than 100 µM; against HSP60/HSP10 [7] it was 22 µM.

On to `CCCCC/C=C\C/C=C\C/C=C\C/C=C\CCCC(=O)O` [ARACHIDONIC ACID], for which the IC50 is 7.3 µM against E. coli GroEL/ES [4]; 18 µM against E. coli GroEL/ES [5]; greater than 250 µM at Chaperonin GroEL; greater than 100 µM in experiment [6]; 4.5 µM on HSP60/HSP10 [7].

`CCCCCCCCCCCCCCCCC(C(=O)O)C(O)(CC(=O)O)C(=O)O` (centres undefined): the IC50 on E. coli GroEL/ES [4] was 3.5 µM; against E. coli GroEL/ES [5], 8.9 µM; at Chaperonin GroEL it was greater than 250 µM; in experiment [6] it was greater than 100 µM; against HSP60/HSP10 [7] it was 4 µM.

Turning to `CCc1oc2ccccc2c1C(=O)c1cc(Br)c(O)c(Br)c1` [BENZBROMARONE], the IC50 is 18 µM at E. coli GroEL/ES [4]; 49 µM at E. coli GroEL/ES [5]; greater than 250 µM on Chaperonin GroEL; greater than 100 µM in experiment [6]; 9.1 µM at HSP60/HSP10 [7].

With `Oc1ccc(Cl)cc1Cc1cc(Cl)ccc1O` [DICHLOROPHEN], the IC50 against E. coli GroEL/ES [4] is 24 µM; against E. coli GroEL/ES [5] it was 66 µM; at Chaperonin GroEL, greater than 250 µM; in experiment [6], greater than 100 µM; against HSP60/HSP10 [7] it was 17 µM.

`CCCCCCCCCc1ccc(O)cc1` [4-NONYLPHENOL]: the IC50 is 12 µM at E. coli GroEL/ES [4]; 29 µM at E. coli GroEL/ES [5]; greater than 250 µM on Chaperonin GroEL; 72 µM in experiment [6]; 9.5 µM at HSP60/HSP10 [7].

`CC1(C)CCC2=C(O1)c1ccccc1C(=O)C2=O` [LAPACHONE]: the IC50 at E. coli GroEL/ES [4] was 1.3 µM; against E. coli GroEL/ES [5], 0.59 µM; on Chaperonin GroEL it was greater than 250 µM; in experiment [6], 0.12 µM; at HSP60/HSP10 [7], 2.1 µM.
